“Also recorded” adds a separate entry of the source.
Assays:
[1] = test system: human gastric tumor SGC-7901 cells; assay: Xenograft mouse model, SGC-7901 tumor growth; assay type: in vivo, BALB/c nude mice; conditions: tail vein; 100 μl containing 0.4 mg of AP-3 on days 0 and 14; nude mice; compared to controls
Description: Female BALB/c nude mice aged at 4-6 weeks-old were purchased (Tyercan, Ltd, Shenzhen) and reared in the laboratory animal facility for one week to adapt to the new environment. A total of 5×10^6 human gastric tumor SGC-7901 cells (200 μl) were inoculated into the right flank of each mouse by subcutaneous injection. When the tumor sizes reached 100-300 mm^3 (tumor volume=0.5×Length×Width^2), tumor-carrying mice in the experimental group were given (via tail vein injection) a first dose (at day zero) of 100 μl of AP3-HSA 200 mg/kg and a second dose (at day 14) of 150 mg/kg. A control group was injected with 100 μl of AP-3 containing 0.4 mg of AP-3 on days 0 and 14 in a similar fashion. 100 μl of normal saline was injected via the tail vein in a second control group on the same days. Tumor volumes were measured and mouse bodies were weighed twice a week since the first administration.

[2] = Body weights in U-937 xenograft study; assay type: in vivo; conditions: U-937 xenograft SCID mice, tail vein AP3 0.5 mg/kg days 0 and 15 (FIG. 11 legend)
Description: Female SCID mice (Tyercan, Ltd, Shenzhen) aged at 4-6 weeks-old were purchased and reared in the laboratory animal facility for one week to adapt to the new environment. A total of 5×10^6 human U-937 lymphoma tumor cells (200 μl) were inoculated into the right flank of each mouse by subcutaneous injection. […] […] 100 μl of normal saline was injected via the tail vein in a second control group on the same days. Tumor volumes were measured and mouse bodies were weighed twice a week since the first administration.

Structure (SMILES): COc1cc2cc(c1Cl)N(C)C(=O)C[C@H](OC(=O)C(C)C)[C@]1(C)O[C@@H]1[C@H](C)[C@@H]1C[C@@](O)(NC(=O)O1)[C@H](OC)/C=C/C=C(\C)C2 [AP3, Ansamitocin P3]
- effect on growth of SGC-7901 tumors [1]: only marginally effective
- recovery of body weights after treatment [2]: returned to normal about a week after the final injections
- effect on body weights ([2]; 0.5 mg/kg): decreases in body weight; also recorded: weight losses

From patent publication US12599674B2, “Conjugates, their compositions, and their related methods” (THE ADMINISTRATORS OF THE TULANE EDUCATIONAL FUND, priority 2021, dated 2026)
